In assay [1] the test system is RPE1 cells. Nature of the assay: LAMP1 accumulation (Western blot and immunofluorescence). It counts as cell-based. The text has this:
Supplementary Fig. 9 UNI418 is not a simple lysosomotropic agent. a Western blot of LAMP1 with UNI418 and Chloroquine. GAPDH was used as a loading control. NT, not treated. b Immunofluorescence images showing accumulation of LAMP1 in RPE1 cells with the indicated concentration of Chloroquine and UNI418 treatment, and images within the white rectangular boxes are zoomed in on the right side. Scale bar, 20 µm. c The mean of intensity in individual cell was quantified. Data presented as mean ± SEMs, n >20.
Significance was determined by Student’s t-test, ***p < 0.001.
(§1) (1 picture or pasted object on this page, not shown here)
(A western blot detects proteins with antibodies after separation by electrophoresis.)

Assay [2] addresses PIP5K1B (Homo sapiens, UniProt O14986). Briefly: SelectScreen Kinase Profiling Service (single point and 10 point titration). It counts as biochemical.
Source text: (§2) UNI418 has a core structure consisting of 4-quinazolinamine (Fig. 1a, green), which is often found in kinase inhibitors. […] The phosphoinositide (PI) system is a crucial regulatory mechanism in membrane trafficking and is tightly regulated through phosphorylation cascades by multiple phosphatidylinositol phosphate kinases (PIPKs)[30]. We hypothesized that UNI418 may inhibit PIPK(s) and performed PIPK profiling analysis. […] To test whether UNI418 interacts with PIP5K1C and PIKfyve, we performed a CETSA, which determines the characteristics of protein stabilization upon ligand binding to the target protein[31]. UNI418- or DMSO-treated cell lysates were incubated at different temperatures, and the presence of the target protein in the soluble fraction was analyzed by Western blotting (Fig. 1c).
(§3) Fig. 1 UNI418 specifically targets PIP5K1 and PIKfyve. a Chemical structure of UNI418. The 4-quinazolinamine core is highlighted in green. b Table of the kinase profiling analysis. Inhibition of several kinases was determined at a 1 μM concentration of UNI418 and analyzed by the SelectScreen Kinase Profiling Service (Thermo Fisher Scientific). c Cellular thermal shift assay. Ectopically expressed GFP-PIP5K1C and GFP-PIKfyve were heated to the indicated temperatures with/without UNI418, and the presence of protein in the soluble fraction was analyzed by Western blot analysis. TEXT PRINTED IN THE PICTURE: (b) UNI418: % Inhibition (mean): 11 ([ATP] Tested (μM): 10; Kinase Tested: PI4K2A (PI4K2 alpha)); % Inhibition (mean): 4 ([ATP] Tested (μM): 10; Kinase Tested: PI4K2B (PI4K2 beta)); % Inhibition (mean): -6 ([ATP] Tested (μM): 10; Kinase Tested: PI4KA (PI4K alpha)); % Inhibition (mean): 48 ([ATP] Tested (μM): Km app; Kinase Tested: PI4KB (PI4K beta)); % Inhibition (mean): 20 ([ATP] Tested (μM): 10; Kinase Tested: PIK3C2B (PI3K-C2 beta)); % Inhibition (mean): 22 ([ATP] Tested (μM): 10; Kinase Tested: PIK3C2G (PI3K-C2 gamma)); % Inhibition (mean): 4 ([ATP] Tested (μM): 100; Kinase Tested: PIK3C3 (hVPS34)); % Inhibition (mean): 8 ([ATP] Tested (μM): 10; Kinase Tested: PIK3CA/PIK3R3 (p110 alpha/p55 gamma)); % Inhibition (mean): 7 ([ATP] Tested (μM): 10; Kinase Tested: PIK3CB/PIK3R2 (p110 beta/p85 beta)); % Inhibition (mean): 9 ([ATP] Tested (μM): 10; Kinase Tested: PIP4K2A); % Inhibition (mean): 67 ([ATP] Tested (μM): 10; Kinase Tested: PIP5K1A); % Inhibition (mean): 93 ([ATP] Tested (μM): 10; Kinase Tested: PIP5K1B); % Inhibition (mean): 93 ([ATP] Tested (μM): 10; Kinase Tested: PIP5K1C); % Inhibition (mean): 100 ([ATP] Tested (μM): 100; Kinase Tested: PIKFYVE) | (b) Apilimod: % Inhibition (mean): 100 ([ATP] Tested (μM): 100; Kinase Tested: PIKFYVE) […]
(§4) Supplementary Fig. 2 UNI418 inhibits PIP5K1B/C and PIKfyve. a Inhibition graph of PIP5K1 kinases at the 10 point titration with UNI418. IC 50 value of PIP5K1 kinases was analyzed by Thermo Fisher Scientific’s SelectScreen kinase profiling service. b Kd (nM) values of PIP5K1C and PIKfyve inhibition were determined using the Eurofins kinase assay service.
as §1

Assay [3] concerns the target PIP5K1A (Homo sapiens, UniProt Q99755). Described as above. It counts as biochemical.
Source text: as §2, §3, §4, §1

For assay [4], the target named is PIP5K1C (Homo sapiens, UniProt O60331). The description is as above. In kind it is biochemical.
Sequence of PIP5K1C (O60331 whole entry): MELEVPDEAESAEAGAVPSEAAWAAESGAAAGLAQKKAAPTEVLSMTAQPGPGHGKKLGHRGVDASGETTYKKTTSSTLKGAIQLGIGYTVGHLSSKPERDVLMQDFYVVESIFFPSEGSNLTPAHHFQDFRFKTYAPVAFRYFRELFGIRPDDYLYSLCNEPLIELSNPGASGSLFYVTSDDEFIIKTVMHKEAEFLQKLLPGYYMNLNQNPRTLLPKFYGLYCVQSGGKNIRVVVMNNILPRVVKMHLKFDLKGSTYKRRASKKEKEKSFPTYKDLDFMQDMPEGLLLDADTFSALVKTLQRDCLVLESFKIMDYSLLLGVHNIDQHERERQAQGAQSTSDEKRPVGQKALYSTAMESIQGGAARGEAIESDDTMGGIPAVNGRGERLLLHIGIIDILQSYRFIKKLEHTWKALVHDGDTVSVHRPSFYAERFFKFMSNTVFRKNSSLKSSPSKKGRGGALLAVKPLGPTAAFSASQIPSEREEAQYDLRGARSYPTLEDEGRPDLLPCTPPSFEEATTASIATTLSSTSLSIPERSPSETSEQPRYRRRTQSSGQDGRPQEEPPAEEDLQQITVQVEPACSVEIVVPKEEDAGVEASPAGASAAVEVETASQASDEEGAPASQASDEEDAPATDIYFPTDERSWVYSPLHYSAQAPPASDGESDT
Source text: as §2, §3, §4, §1

Assay [5] deals with PIK3CB/PIK3R2 (p110 beta/p85 beta). Nature of the assay: SelectScreen Kinase Profiling Service (PIPK profiling). It counts as biochemical. The settings on record: 1 μM UNI418; [ATP] 10 μM.
Source text: as §2, §3

Assay [6] deals with PIK3CA/PIK3R3 (p110 alpha/p55 gamma). Described as above. In kind it is biochemical. The following applies: 1 μM UNI418; [ATP] 10 μM.
Source text: as §2, §3

The subject of assay [7] is PI4KB (PI4K beta). Described as above. In kind it is biochemical. The settings on record: 1 μM UNI418; [ATP] Km app.
Source text: as §2, §3

In assay [8] the test system is PIK3C2B (PI3K-C2 beta). Described as above. It counts as biochemical. The following applies: 1 μM UNI418; [ATP] 10 μM.
Source text: as §2, §3

Assay [9] deals with PI4K2B (PI4K2 beta). The assay is described as above. In kind it is biochemical. The settings on record: 1 μM UNI418; [ATP] 10 μM.
Source text: as §2, §3

The subject of assay [10] is PIK3C2G (PI3K-C2 gamma). The description is as above. In kind it is biochemical. The settings on record: 1 μM UNI418; [ATP] 10 μM.
Source text: as §2, §3

The test system of assay [11] is PI4K2A (PI4K2 alpha). The assay is described as above. It counts as biochemical. The settings on record: 1 μM UNI418; [ATP] 10 μM.
Source text: as §2, §3

Assay [12] concerns PI4KA (PI4K alpha). Described as above. The settings on record: 1 μM UNI418; [ATP] 10 μM. In kind it is biochemical.
Source text: as §2, §3

For assay [13], the system named is PIP4K2A. The assay is described as above. The settings on record: 1 μM UNI418; [ATP] 10 μM. In kind it is biochemical.
Source text: as §2, §3

Assay [14] has as its system PIK3C3 (hVPS34). The assay is described as above. It counts as biochemical. The settings on record: 1 μM UNI418; [ATP] 100 μM.
Source text: as §2, §3

These results are taken from article PMC11372076, “A dual inhibitor of PIP5K1C and PIKfyve prevents SARS-CoV-2 entry into cells” (Experimental & Molecular Medicine, 2024).

Structures are written as SMILES.

One may read the IC50 as the concentration that gives 50% inhibition. High values mean weaker potency, low ones greater potency. In general, inhibition refers to the percentage by which the read-out fell short of the control. Low values mean little suppression, high ones strong suppression.

Sequence of PIP5K1A (Q99755 whole entry): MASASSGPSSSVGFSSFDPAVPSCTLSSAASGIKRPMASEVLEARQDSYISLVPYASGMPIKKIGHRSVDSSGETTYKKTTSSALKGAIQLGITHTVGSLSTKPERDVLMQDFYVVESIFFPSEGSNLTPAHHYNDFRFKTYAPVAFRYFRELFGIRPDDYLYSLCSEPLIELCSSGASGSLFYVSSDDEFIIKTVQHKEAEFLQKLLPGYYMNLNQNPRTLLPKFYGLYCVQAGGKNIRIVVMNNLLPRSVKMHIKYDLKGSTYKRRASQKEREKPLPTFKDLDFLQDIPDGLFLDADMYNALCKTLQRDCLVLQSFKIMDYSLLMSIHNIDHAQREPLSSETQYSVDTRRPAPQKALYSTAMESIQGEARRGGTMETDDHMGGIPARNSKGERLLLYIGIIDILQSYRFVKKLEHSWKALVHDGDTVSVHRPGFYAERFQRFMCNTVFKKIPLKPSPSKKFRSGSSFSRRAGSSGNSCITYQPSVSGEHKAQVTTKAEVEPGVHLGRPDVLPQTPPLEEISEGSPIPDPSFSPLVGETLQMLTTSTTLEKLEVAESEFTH
Sequence of PIP5K1B (O14986 whole entry): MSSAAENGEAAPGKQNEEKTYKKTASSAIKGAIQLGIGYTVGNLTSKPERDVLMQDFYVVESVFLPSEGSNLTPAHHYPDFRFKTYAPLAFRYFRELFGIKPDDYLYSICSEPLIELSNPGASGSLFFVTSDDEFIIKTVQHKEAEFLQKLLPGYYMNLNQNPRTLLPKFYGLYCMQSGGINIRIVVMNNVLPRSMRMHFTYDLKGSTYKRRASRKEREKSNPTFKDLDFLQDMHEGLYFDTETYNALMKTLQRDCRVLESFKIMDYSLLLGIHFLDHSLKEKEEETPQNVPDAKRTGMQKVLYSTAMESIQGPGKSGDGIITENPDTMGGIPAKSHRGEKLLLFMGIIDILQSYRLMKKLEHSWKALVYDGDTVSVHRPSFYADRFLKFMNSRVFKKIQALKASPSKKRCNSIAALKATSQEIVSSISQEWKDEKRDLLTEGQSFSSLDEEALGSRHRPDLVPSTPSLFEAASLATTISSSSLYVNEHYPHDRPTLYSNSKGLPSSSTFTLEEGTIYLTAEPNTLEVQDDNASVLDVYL

In the case of `c1ccc(-c2cc(Nc3nc(-c4ccncc4)nc4ccccc34)n[nH]2)cc1` [UNI418, N -(5-phenyl-1 H -pyrazol-3-yl)-2-(4-pyridinyl)-4-quinazolinamine], the “accumulation of LAMP1 or LAMP1-positive lysosomes” value in assay [1] was “did not cause the accumulation”. In addition, the IC50 in assay [2] was determined as 60.7 nM; in assay [3] it was 255 nM; in assay [4], 60.1 nM. Also, the inhibition at 1 µM in assay [2] (1 μM UNI418, [ATP] 10 μM) turned out to be 93%; in assay [3] (1 μM UNI418, [ATP] 10 μM), 67%; in assay [4] (1 μM UNI418, [ATP] 10 μM), 93%. The “% Inhibition (mean)” value was 7% in assay [5]; 8% in assay [6]; 48% in assay [7]; 20% in assay [8]; 4% in [9]; 22% in assay [10]. The “% Inhibition (mean)” value in assay [11] is 11%; in [12] it was -6%; in assay [13], 9%; in [14] it was 4%.
